Source: US8404651B2, “Compositions and methods for treating viral infections” (priority 2008, dated 2013)
Several values for one entry are separate records, joined by “and”; a condition that tells them apart may be missing. Equal entries are not always repeated.

Tests used:
[1] = system: HCV replicon cell line, AVA5 [sub-genomic (CON1), genotype 1b]; experiment: microbe, parasite or virus in culture; assay type: cell-based; settings: Hepatitis C virus
Protocol: Primary anti-HCV assay-Antiviral activity against HCV was assessed in a 3-day assay (Okuse, et al., 2005; Antiviral. Res. 65:23; Korba, et al., 2008, Antiviral Res. 77:56) using the stably-expressing HCV replicon cell line, AVA5 [sub-genomic (CON1), genotype 1b](Blight, et al., 2000, Science 290:1972) maintained as sub-confluent cultures on 96-well plates. Antiviral activity was determined by blot hybridization analysis of intracellular HCV RNA (normalized to the level of cellular B-actin RNA in each culture sample). Cytotoxicity was assessed by neutral red dye uptake in cultures maintained in parallel plates.
EC50, EC90, and CC50 values were calculated by linear regression analysis (MS EXCEL®, QUATTROPRO®) using data combined from all treated cultures Korba & Gerin, 1992, Antivir. Res. 19:55; Okuse, et al., 2005, Antivir. Res. 65:23). Standard deviations for EC50 and EC90 values were calculated from the standard errors generated by the regression analyses. […] The Selectivity index (S.I.) was calculated as CC50/EC50. Recombinant human interferon 2b (PBL laboratories, Inc.) was used as an assay control.
For each combination of agents, three concentration ratios, centered on the use of the compounds at equipotent antiviral concentrations, were used. A dilution series (six three-fold-concentration steps, beginning at the approximate EC90) was then generated with the concentration ratio of the two agents remaining the same in each dilution step. Toxicity analysis was performed as described above for the monotherapies. Analysis of drug interactions in the combination studies was determined by the use of the […] program (Biosoft, Inc., Cambridge, United Kingdom). This program evaluates synergy, additivity, or antagonism by use of several methodologies, including that of Chou and Talalay with a statistical analysis employing the Monte Carlo technique to provide confidence limits, fraction-affected-confidence interval (FA-CI) plots, isobolograms, and median-effect plots. (Belenkii, M. S. Schinazi, R. A method for the analysis of combination therapies with statistical analysis. Antiviral Res. 25, 11, 2005).

[2] = MTT cytotoxicity assay, Vero; assay type: cell-based; settings: African green monkey, Vero cells, 24-hour incubation
Protocol: (§1) Cellular cytotoxicity profile of the compounds was carried out against a panel of cell lines. Standard MTT assays were performed in 96-well plates using the Promega CellTiter96 Non-radioactive Cell Proliferation Assay Kit in conjunction with a 96-well Plate Reader (ThermoMax, Molecular devices), and MDBK, Vero, and HFF cell lines (obtained from ATCC). Several controls were employed including the nucleoside analogs 3TC, AZT, and ddC, as well as, media without drugs. SDS was used as a positive cytotoxic control. The compounds were tested in triplicate at concentrations of 100, 300, and 1000 μM. Following a 24-hour incubation of cells with the test substance, the MTT assay was carried out.

[3] = MTT cytotoxicity assay, MDBK; assay type: cell-based; settings: cattle, MDBK cells, 24-hour incubation
Protocol: as §1

[4] = MTT cytotoxicity assay, HFF; assay type: cell-based; settings: human, HFF cells, 24-hour incubation
Protocol: as §1

TA1537 = experiment: In vitro bacterial mutagenicity assay (pre-incubation), strain TA1537; settings: for Number of revertants x1, x2, x3: individual plates
Protocol: (§2) Dispense 100 microliter aliquots of the appropriate bacterial cultures into sample tubes stored on ice. Dispense aliquots of the vehicle, positive controls or dose formulations into the appropriate sample tubes. 2 mL top Agar and HBT cap was added to the sample tube, inverted three times and poured into MG plate. The lid was replaced on the plate and left on a level surface to let the agar harden. The plates were incubated in an incubator for 48 to 72 h. The background lawn and count the number of revertants was checked for each plate.

[5] = system: bacterial strains TA1535, TA1537, TA98, TA100, WP2 uvrA; experiment: In vitro bacterial mutagenicity assay, overall conclusions for all strains
Protocol: as §2

[6] = 14 day tolerability study in uPA SCID (KMT) mouse; assay type: in vivo; settings: for tolerability: 300 mg/kg once a day by oral gavage for 14 days, KMT mice
Protocol: Two separate groups of animals were treated with vehicle control or with a daily drug dose of 300 mg/kg for 14 days. Blood samples were taken 15 minutes after the drug doses on Day 1 (first dose), Day 7 and Day 14 (last dose) for measurement of the concentration of the drug in the serum of study animals. Body weights and health index scores were monitored daily in order to assess tolerance of the study animals to the dosing procedure and the drug. […] The solution was used to dose animals in a volume of 7.5 ml/kg. The citric acid buffer was also used for dosing of the vehicle control animals.
Ten KMT transgenic animals with low engraftment of human liver cells (hAAT values less than 20 at 6 weeks) were allocated to this study. Individual body weights of animals were recorded prior to treatment and daily during the study. Animals were also evaluated once a day (at morning dose administration) for clinical signs and monitored for morbidity and mortality. The study animals were allocated into 2 groups of 5 animals. Compound 2 or citric acid vehicle control were administered once a day by oral gavage employing a sterile syringe and feeding needle for each animal. Dosing volume was 7.5 mL/kg (150 μL/20 grams body weight) for all groups. The volume was adjusted based on the daily body weight of each individual animal. […] The study started on Day 1 with the first drug dose administered in the morning and continued up to Day 14, the last day of drug treatment. Blood was collected via the central tail artery from all animals of each group on Day 1, fifteen minutes after the first drug dose, on Day 7, fifteen minutes after the drug dose, and on Day 14, fifteen minutes after the last drug dose. The blood samples were allowed to clot and the serum removed from above the clot pellet. Serum samples were stored at −80° C. prior to shipment to the study client. […]
Individual body weights of the animals were recorded prior to treatment and daily during the course of the study. The animals were also evaluated daily for clinical signs and monitored for morbidity and mortality. […]

[7] = TA1537, absence of S9, 50 μg/plate
[8] = TA1537, absence of S9, 158 μg/plate
[9] = TA1537, absence of S9, 500 μg/plate
[10] = TA1537, absence of S9, 1581 μg/plate
[11] = TA1537, absence of S9, 5000 μg/plate
[12] = TA1537, presence of S9, 50 μg/plate
[13] = TA1537, presence of S9, 158 μg/plate
[14] = TA1537, presence of S9, 500 μg/plate
[15] = TA1537, presence of S9, 1581 μg/plate
[16] = TA1537, presence of S9, 5000 μg/plate

COC1C(OP(=O)(OC[C@H]2O[C@@H](n3cnc4c(N)ncnc43)CC2O)SCOC(=O)OC(C)C)[C@@H](CO)O[C@H]1n1ccc(=O)[nH]c1=O (stereo partly shown) [Compound 2, S-isopropylcarbonyloxymethyl thiophosphate (6k) of 3′dApsU2′OMe]
EC50 ([1]; Ava5, read-out: EC50 HCV type 1B): 1 µM | EC90 ([1]; Ava5, read-out: EC90 HCV type 1B): 6 µM | CC50 at 24 h [2]: > 1000 µM | CC50 at 24 h [3]: > 1000 µM | CC50 at 24 h [4]: > 1000 µM | Number of revertants mean (TA1537; [7]): 11 | Number of revertants x1, x2, x3 (TA1537; [7]): 8 and 17 and 9 | Number of revertants mean (TA1537; [8]): 12 | Number of revertants x1, x2, x3 (TA1537; [8]): 9 and 8 and 19 | Number of revertants mean (TA1537; [9]): 10 | Number of revertants x1, x2, x3 (TA1537; [9]): 15 and 6 and 10 | Number of revertants mean (TA1537; [10]): 15 | Number of revertants x1, x2, x3 (TA1537; [10]): 17 and 15 and 13 | Number of revertants mean (TA1537; [11]): 11 | Number of revertants x1, x2, x3 (TA1537; [11]): 15 and 9 and 8 | Number of revertants mean (TA1537; [12]): 17 | Number of revertants x1, x2, x3 (TA1537; [12]): 20 and 17 and 15 | Number of revertants mean (TA1537; [13]): 18 | Number of revertants x1, x2, x3 (TA1537; [13]): 16 and 18 and 21 | Number of revertants mean (TA1537; [14]): 17 | Number of revertants x1, x2, x3 (TA1537; [14]): 25 and 12 and 15 | Number of revertants mean (TA1537; [15]): 15 | Number of revertants x1, x2, x3 (TA1537; [15]): 18 and 15 and 13 | Number of revertants mean (TA1537; [16]): 12 | Number of revertants x1, x2, x3 (TA1537; [16]): 11 and 15 and 10 | increases in the revertant colony counts ([5]; any strain, absence or presence of S9 mix): No substantial increases in the revertant colony counts | precipitation in the bacterial mutation test ([5]; formulated in DMSO, up to 5000 μg/plate): No precipitation was observed | toxicity to the bacteria (thinning of the background lawn of non-revertant bacteria) ([5]; up to 5000 μg/plate): non-toxic to the bacteria at the levels tested | body weight change ([6]; 300 mg/kg daily, Day 1 to Day 14, one animal in the drug group (F187)): small decrease in body weight | tolerability [6]: generally well tolerated | tolerability ([6]; listed as drug): well tolerated
